In BindingDB's records for doi:10.3109/14756366.2011.629198 (Dumlupinar University, 2012):
pKi: −log10 of the molar value. Structures can show the parent of a compound that is named as a salt.

What was measured:
Experiment in all cases: CA Inhibition Assay
Conditions in all cases: pH 7.4
Carbonic anhydrase 4 = Carbonic anhydrase 4 (Homo sapiens, UniProt P22748)
Carbonic anhydrase 2 = Carbonic anhydrase 2 (Homo sapiens, UniProt P00918)
Carbonic anhydrase 1 = Carbonic anhydrase 1 (Homo sapiens, UniProt P00915)
Carbonic anhydrase 1, sequence (P00915 whole entry): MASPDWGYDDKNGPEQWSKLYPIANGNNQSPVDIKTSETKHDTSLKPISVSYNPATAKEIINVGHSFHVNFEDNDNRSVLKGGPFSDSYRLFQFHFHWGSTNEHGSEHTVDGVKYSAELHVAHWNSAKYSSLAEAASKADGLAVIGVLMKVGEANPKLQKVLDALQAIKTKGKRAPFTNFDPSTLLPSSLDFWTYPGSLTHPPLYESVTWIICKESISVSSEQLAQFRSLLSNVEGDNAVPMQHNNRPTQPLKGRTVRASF

Carbonic anhydrase 6 = Carbonic anhydrase 6 (Homo sapiens, UniProt P23280)
Carbonic anhydrase 6, sequence (P23280 whole entry): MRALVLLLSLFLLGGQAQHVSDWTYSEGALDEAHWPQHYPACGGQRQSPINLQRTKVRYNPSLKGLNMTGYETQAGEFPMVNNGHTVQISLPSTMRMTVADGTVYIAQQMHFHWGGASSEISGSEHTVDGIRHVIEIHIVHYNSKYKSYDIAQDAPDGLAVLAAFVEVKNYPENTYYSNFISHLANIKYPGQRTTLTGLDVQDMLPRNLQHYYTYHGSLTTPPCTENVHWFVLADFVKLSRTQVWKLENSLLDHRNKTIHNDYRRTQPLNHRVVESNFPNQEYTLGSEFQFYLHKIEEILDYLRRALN

Carbonic anhydrase 4, sequence (P22748 whole entry): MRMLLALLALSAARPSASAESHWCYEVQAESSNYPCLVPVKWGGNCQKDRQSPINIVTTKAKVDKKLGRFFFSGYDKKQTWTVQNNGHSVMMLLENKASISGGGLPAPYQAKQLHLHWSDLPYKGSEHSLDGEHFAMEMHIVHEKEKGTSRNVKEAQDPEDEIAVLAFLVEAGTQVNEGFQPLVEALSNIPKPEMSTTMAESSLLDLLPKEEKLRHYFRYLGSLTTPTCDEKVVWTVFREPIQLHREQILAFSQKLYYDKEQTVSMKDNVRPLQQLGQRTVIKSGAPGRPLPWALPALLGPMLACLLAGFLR

Row | Compound | pKi (Carbonic anhydrase 4) | pKi (Carbonic anhydrase 2) | pKi (Carbonic anhydrase 1) | pKi (Carbonic anhydrase 6)
1 | O=S(=O)(O)O[C@H]1CC2c3ccccc3C1[C@@H]2O (stereo partly drawn) [9(R(S))-Hydroxy-1,2,3,4-tetrahydro-1,4-methanonaphthalen-2(R(S))-yl sulfate (8)] | 3.70 | 4.98 | 4.49 | 3.66
2 | O[C@@H]1CCCC[C@H]1O [(1R,2R)-trans-1,2-cyclohexanediol] | 4.73 | 5.33 | 3.87 | 4.12
3 | O[C@@H]1Cc2ccccc2C[C@H]1O [trans-(2R(S),3R(S))-1,2,3,4-Tetrahydronaphthalene-2,3-diol (11)] | 4.11 | 4.49 | 3.37 | 3.90
4 | O[C@@H]1C2C[C@H](O)C1c1ccccc12 (stereo partly drawn) [9(R(S))-Hydroxy-1,2,3,4-tetrahydro-1,4-methanonaphthalen-2(R(S))-diol (9)] | 3.63 | 4.63 | 3.85 | 3.56

These reach a higher pKi (Carbonic anhydrase 4). Values come first.

Row | pKi (Carbonic anhydrase 4) | pKi (Carbonic anhydrase 2) | pKi (Carbonic anhydrase 1) | pKi (Carbonic anhydrase 6) | Compound
5 | 4.86 | 5.67 | 4.38 | 4.03 | O=S(=O)(O)O[C@@H]1CC=CC[C@H]1O [trans-(1R(S),6R(S))-6-Hydroxycyclohex-3-enyl hydrogen sulfate (4)]
6 | 4.79 | 5.27 | 4.11 | 3.91 | O=S(=O)(O)O[C@@H]1CC/C=C\CC[C@H]1O [trans-(1R(S),8R(S),Z)-8-Hydroxycyclooct-4-enyl hydrogen sulfate (6)]
